Here are results for nine compounds from patent US4542021A, “Antitumor compositions for non-injection administration” (Yamasa Shoyu Kabushiki Kaisha, priority 1978, dated 1985).

In this assay the test system is L1210 leukemia. The assay can be described thus: Therapeutic test on L1210 leukemia (oral, once a day). The format is in vivo, BDF1 mice. The conditions noted are these: Mus musculus, read-out: % ILS (increase in life span). Here is the method: The L1210 leukemic cell suspension (1×10^5 cells/0.2 ml) was implanted intraperitoneally in BDF1 mice (males, 18 to 22 g, females, 16 to 20 g) (7 mice per group). From 24 hours after the implantation to the 5th day thereafter, the predetermined doses of the compounds to be tested were orally administered to the mice consecutively once a day. The compounds to be tested were dissolved or suspended in a phosphate-bufferedsalt solution (PBS) containing 0.5% carboxymethylcellulose, and given at a dose rate of 0.1 ml per 10 g of each mouse's body weight. To a control group, only the same solvent as used for the dissolution of the compounds to be tested was administered in the same way. The mean survival times (MST) for each group were calculated, and the corresponding increase in life span (%ILS) was obtained in accordance with the following formula, the results of which are shown in Table 1. [formula]

Where [1] appears, read: L1210, 720 h, oral, 100 mg/kg/day, > means some mice survived the test period (30 days).
The mark [2] stands for this setting: L1210, 720 h, oral, 200 mg/kg/day, > means some mice survived the test period (30 days).
Where [3] appears, read: L1210, 720 h, oral, 400 mg/kg/day, > means some mice survived the test period (30 days).

SMILES strings stand for the structures. Where two headings read alike, the source gives them in different places.

Take `CCCCCCCCCCCCCCCCCCCCCCCCCCOP(=O)(O)OC[C@H]1O[C@@H](n2ccc(N)nc2=O)[C@@H](O)[C@@H]1O` [ara-CMP hexacosyl ester, reference compound]: the ILS at 100 mg/kg/day under setting [1] is 27%. For the same compound, the ILS at 200 mg/kg/day under setting [2] came out at 52%. Further, under setting [3], the ILS at 400 mg/kg/day worked out at 86%. For the same compound, for the setting “L1210, oral”, the ILS at 25 mg/kg/day was found to be 14% and the ILS at 50 mg/kg/day amounted to 23%.

On to `CCCCCCCCCCCCCCCCCOP(=O)(O)OC[C@H]1O[C@@H](n2ccc(N)nc2=O)[C@@H](O)[C@@H]1O` [C17-ara-CMP ester, ara-CMP-heptadecyl ester], for which the ILS at 100 mg/kg/day under setting [1] was 123%. Besides, the ILS at 200 mg/kg/day under setting [2] was more than 154%. Under setting [3], the ILS at 400 mg/kg/day was -15%. Also, the ILS at 6.25 mg/kg/day (L1210, oral, 6.25 mg/kg/day) worked out at 11%. In addition, under “L1210, oral”, the ILS at 12.5 mg/kg/day was 32%, the ILS at 25 mg/kg/day was 52% and the ILS at 50 mg/kg/day was determined as 87%.

With `CCCCCCCCCCCCCCCCCCCCCCCOP(=O)(O)OC[C@H]1O[C@@H](n2ccc(N)nc2=O)[C@@H](O)[C@@H]1O` [C23-ara-CMP ester, ara-CMP-tricosyl ester], the ILS at 100 mg/kg/day under setting [1] turned out to be 81%. Under setting [2], the ILS at 200 mg/kg/day was 110%. Further, the ILS at 400 mg/kg/day under setting [3] is 128%. Besides, under “L1210, oral”, the ILS at 12.5 mg/kg/day worked out at 29%, the ILS at 25 mg/kg/day was found to be 51% and the ILS at 50 mg/kg/day is 65%.

Turning to `CCCCCCCCCCCCCCOP(=O)(O)OC[C@H]1O[C@@H](n2ccc(N)nc2=O)[C@@H](O)[C@@H]1O` [C14-ara-CMP ester, ara-CMP-tetradecyl ester], under setting [1], the ILS at 100 mg/kg/day is 88%. Also, the ILS at 200 mg/kg/day under setting [2] was determined as 105%. For the same compound, the ILS at 400 mg/kg/day under setting [3] is 134%. In addition, the ILS at 50 mg/kg/day (L1210, oral) is 62%.

Consider `COP(=O)(O)OC[C@H]1O[C@@H](n2ccc(N)nc2=O)[C@@H](O)[C@@H]1O` [ara-CMP methyl ester, reference compound], for which, under “L1210, po, 720 h”, the ILS at 100 mg/kg/day is 13%, the ILS at 200 mg/kg/day is 48% and the ILS at 400 mg/kg/day was found to be 65%.

As to `CCCCCCCCCCOP(=O)(O)OC[C@H]1O[C@@H](n2ccc(N)nc2=O)[C@@H](O)[C@@H]1O` [ara-CMP decyl ester, reference compound], under setting [1], the ILS at 100 mg/kg/day came to 8%. The ILS at 200 mg/kg/day under setting [2] was determined as 36%. Moreover, the ILS at 400 mg/kg/day under setting [3] is 39%. Further, for the setting “L1210, oral”, the ILS at 25 mg/kg/day amounted to 0% and the ILS at 50 mg/kg/day came out at 4%.

Take `CCCCCCCCCCCOP(=O)(O)OC[C@H]1O[C@@H](n2ccc(N)nc2=O)[C@@H](O)[C@@H]1O` [ara-CMP undecyl ester, reference compound]: the ILS at 100 mg/kg/day under setting [1] was found to be 31%. Moreover, the ILS at 200 mg/kg/day under setting [2] stood at 78%. Under “L1210, oral”, the ILS at 25 mg/kg/day came out at 12% and the ILS at 50 mg/kg/day turned out to be 27%.

On to `Nc1ccn([C@@H]2O[C@H](COP(=O)(O)O)[C@@H](O)[C@@H]2O)c(=O)n1` [ara-CMP, arabinofuranosylcytosine-5'-phosphate, reference compound], for which the ILS at 100 mg/kg/day under setting [1] was found to be 21%. Besides, under setting [2], the ILS at 200 mg/kg/day was 57%. Besides, the ILS at 400 mg/kg/day under setting [3] was determined as 73%. For the same compound, the ILS at 50 mg/kg/day (L1210, oral) is 8%.

As for `CCCCCCCCCCCCCCCOP(=O)(O)OC[C@H]1O[C@@H](n2ccc(N)nc2=O)[C@@H](O)[C@@H]1O` [C15-ara-CMP ester, ara-CMP-pentadecyl ester], the ILS at 100 mg/kg/day under setting [1] is 95%. Besides, the ILS at 200 mg/kg/day under setting [2] stood at 135%. Further, the ILS at 50 mg/kg/day (L1210, oral) came to 70%.
